Data published in patent US20230146675A1, “PYRIMIDO[5,4-d]PYRIMIDINE DERIVATIVES AS ENT INHIBITORS FOR THE TREATMENT OF CANCERS, AND COMBINATION THEREOF WITH ADENOSINE RECEPTOR ANTAGONISTS” (ITEOS BELGIUM SA, priority 2020, published 2023).

Molecular target: T1, human ENT1 (Homo sapiens, UniProt Q99808)
T1 sequence (Q99808 1-456): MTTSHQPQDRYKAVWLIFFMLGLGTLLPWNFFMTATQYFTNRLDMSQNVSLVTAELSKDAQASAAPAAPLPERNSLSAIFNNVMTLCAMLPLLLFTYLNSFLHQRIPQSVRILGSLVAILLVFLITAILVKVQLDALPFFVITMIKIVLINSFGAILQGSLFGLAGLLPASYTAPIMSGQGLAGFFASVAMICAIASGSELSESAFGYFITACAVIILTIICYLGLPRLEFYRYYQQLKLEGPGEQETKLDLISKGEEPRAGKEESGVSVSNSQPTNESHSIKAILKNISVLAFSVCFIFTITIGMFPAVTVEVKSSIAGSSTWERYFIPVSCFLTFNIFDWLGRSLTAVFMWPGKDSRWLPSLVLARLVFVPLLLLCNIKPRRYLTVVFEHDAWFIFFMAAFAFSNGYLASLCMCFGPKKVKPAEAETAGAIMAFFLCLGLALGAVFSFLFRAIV
Assay: ENT1 binding assay (competition with Sahenta-DY647 on JAR cells)
Design: JAR cells expressing ENT1 were bought from ATCC; host or cells: JAR cells
Conditions: binned IC50
Method: Purpose. […] By measuring the fluorescence at the end of the assay we could assess the binding potency of the compounds of the present invention.
JAR cells were resuspended in the described buffer. Compounds of the present invention and Sahenta-DY647 were diluted 200× in the described buffer.
The total volume of the reaction was 100 μL (50 μL of cells, 25 μL of the compounds of the present invention and 25 μL of Sahenta-DY647) in a 96 well plate, U-bottom (Greiner®, #650-180). The plates were washed 2× by centrifugation (4 min, 400 rcf at 4° C.) in the same buffer.

Row | SMILES | IC50 [nM]
1 | COCCN(CCOC)c1nc(N2CCN(c3nccs3)CC2)c2nc(N(CCOC)CCOC)nc(N3CCN(c4nccs4)CC3)c2n1 [Compound 1, N2,N2,N6,N6-tetrakis(2-methoxyethyl)-4,8-bis(4-(thiazol-2-yl)piperazin-1-yl)pyrimido[5,4-d]pyrimidine-2,6-diamine] | < 100
2 | CCOC(=O)C1CCN(c2nc(N(CCOC)CCOC)nc3c(N4CCC(C(=O)OCC)CC4)nc(N(CCOC)CCOC)nc23)CC1 [Compound 3, diethyl 1,1′-(2,6-bis(bis(2-methoxyethyl)amino)pyrimido[5,4-d]pyrimidine-4,8-diyl)bis(piperidine-4-carboxylate)] | 100 to 500
3 | COCCN(CCOC)c1nc(N2CCc3cc(OC)c(OC)cc3C2)c2nc(N(CCOC)CCOC)nc(N3CCc4cc(OC)c(OC)cc4C3)c2n1 [Compound 4, 4,8-bis(6,7-dimethoxy-3,4-dihydroisoquinolin-2(1H)-yl)-N2,N2,N6,N6-tetrakis(2-methoxyethyl)pyrimido[5,4-d]pyrimidine-2,6-diamine] | 100 to 500
4 | COCCN(CCOC)c1nc(N2CCn3ncnc3C2)c2nc(N(CCOC)CCOC)nc(N3CCN(C)C(=O)C3)c2n1 [Compound 5, 4-(2,6-bis(bis(2-methoxyethyl)amino)-8-(5,6-dihydro-[1,2,4]triazolo[1,5-a]pyrazin-7(8H)-yl)pyrimido[5,4-d]pyrimidin-4-yl)-1-methylpiperazin-2-one] | < 100
5 | COCCN(CCOC)c1nc(N2CCn3ncnc3C2)c2nc(N(CCOC)CCOC)nc(N3CCS(=O)(=O)CC3)c2n1 [Compound 6, 4-(2,6-bis(bis(2-methoxyethyl)amino)-8-(5,6-dihydro-[1,2,4]triazolo[1,5-a]pyrazin-7(8H)-yl)pyrimido[5,4-d]pyrimidin-4-yl)thiomorpholine 1,1-dioxide] | 100 to 500
6 | COCCN(CCOC)c1nc(N2CCS(=O)(=O)CC2)c2nc(N(CCOC)CCOC)nc(NCc3ccccc3)c2n1 [Compound 7] | < 100
7 | CCCN(C)c1nc(N(CCOC)CCOC)nc2c(N3CCS(=O)(=O)CC3)nc(N(CCOC)CCOC)nc12 [Compound 8, 4-(2,6-bis(bis(2-methoxyethyl)amino)-8-(methyl(propyl)amino)pyrimido[5,4-d]pyrimidin-4-yl)thiomorpholine 1,1-dioxide] | < 100
8 | COCCN(CCOC)c1nc(N2CCn3ncnc3C2)c2nc(N(CCOC)CCOC)nc(N3CCn4ncnc4C3)c2n1 [Compound 9, 4,8-bis(5,6-dihydro-[1,2,4]triazolo[1,5-a]pyrazin-7(8H)-yl)-N2,N2,N6,N6-tetrakis(2-methoxyethyl)pyrimido[5,4-d]pyrimidine-2,6-diamine] | 100 to 500
9 | CCCN(C)c1nc(N(CCOC)CCOC)nc2c(N3CCn4ncnc4C3)nc(N(CCOC)CCOC)nc12 [Compound 10, 8-(5,6-dihydro-[1,2,4]triazolo[1,5-a]pyrazin-7(8H)-yl)-N2,N2,N6,N6-tetrakis(2-methoxyethyl)-N4-methyl-N4-propylpyrimido[5,4-d]pyrimidine-2,4,6-triamine] | 100 to 500
10 | COCCN(CCOC)c1nc(N2CC(O)(C(F)(F)F)C2)c2nc(N(CCOC)CCOC)nc(N3CC(O)(C(F)(F)F)C3)c2n1 [Compound 11, 1,1′-(2,6-bis(bis(2-methoxyethyl)amino)pyrimido[5,4-d]pyrimidine-4,8-diyl)bis(3-(trifluoromethyl)azetidin-3-ol)] | < 100
11 | COCCN(CCOC)c1nc(N2CC(O)(C(F)(F)F)C2)c2nc(N(CCOC)CCOC)nc(NCc3ccccc3)c2n1 [Compound 12, 1-(8-(benzylamino)-2,6-bis(bis(2-methoxyethyl)amino)pyrimido[5,4-d]pyrimidin-4-yl)-3-(trifluoromethyl)azetidin-3-ol] | < 100
12 | CCCN(C)c1nc(N(CCOC)CCOC)nc2c(N3CC(O)(C(F)(F)F)C3)nc(N(CCOC)CCOC)nc12 [Compound 13, 1-(2,6-bis(bis(2-methoxyethyl)amino)-8-(methyl(propyl)amino)pyrimido[5,4-d]pyrimidin-4-yl)-3-(trifluoromethyl)azetidin-3-ol] | < 100
13 | CCOC(=O)C1CCN(c2nc(N(CCOC)CCOC)nc3c(N4CCC(C(=O)OCC)CC4)nc(N(CCO)CCO)nc23)CC1 [Compound 14, diethyl 1,1′-(2-(bis(2-hydroxyethyl)amino)-6-(bis(2-methoxyethyl)amino)pyrimido[5,4-d]pyrimidine-4,8-diyl)bis(piperidine-4-carboxylate)] | 500 to 1000
14 | COC1CCN(c2nc(N(CCOC(C)=O)CCOC(C)=O)nc3c(N4CCC(OC)CC4)nc(N(CCOC(C)=O)CCOC(C)=O)nc23)CC1 [Compound 15, ((4,8-bis(4-methoxypiperidin-1-yl)pyrimido[5,4-d]pyrimidine-2,6-diyl)bis(azanetriyl))tetrakis(ethane-2,1-diyl)tetraacetate] | < 100
15 | COCCN(CCOC)c1nc(N2CCC(OC)CC2)c2nc(N(CCOC)CCOCCCN3CCN(C)CC3)nc(N3CCC(OC)CC3)c2n1 [Compound 16, N2,N2,N6-tris(2-methoxyethyl)-4,8-bis(4-methoxypiperidin-1-yl)-N6-(2-(3-(4-methylpiperazin-1-yl)propoxy)ethyl)pyrimido[5,4-d]pyrimidine-2,6-diamine] | 500 to 1000
16 | COCCN(CCOC)c1nc(N2CCC(F)(F)CC2)c2nc(N(CCO)CCO)nc(N3CCC(F)(F)CC3)c2n1 [Compound 19, 2,2′-((6-(bis(2-methoxyethyl)amino)-4,8-bis(4,4-difluoropiperidin-1-yl)pyrimido[5,4-d]pyrimidin-2-yl)azanediyl)diethanol] | 100 to 500
17 | COCCN(CCOC)c1nc(N2CCC(OC)CC2)c2nc(N3CCN(S(C)(=O)=O)CC3)nc(N3CCC(OC)CC3)c2n1 [Compound 30, N,N-bis(2-methoxyethyl)-4,8-bis(4-methoxypiperidin-1-yl)-6-(4-(methylsulfonyl)piperazin-1-yl)pyrimido[5,4-d]pyrimidin-2-amine] | 500 to 1000
18 | CCOC(=O)N1CCN(c2nc(N3CCC(OC)CC3)c3nc(N(CCOC)CCOC)nc(N4CCC(OC)CC4)c3n2)CC1 [Compound 31, ethyl 4-(6-(bis(2-methoxyethyl)amino)-4,8-bis(4-methoxypiperidin-1-yl)pyrimido[5,4-d]pyrimidin-2-yl)piperazine-1-carboxylate] | 500 to 1000
19 | COCCN(CCOC)c1nc(N2CCC(OC)CC2)c2nc(NCCn3cccn3)nc(N3CCC(OC)CC3)c2n1 [Compound 32, N2-(2-(1H-pyrazol-1-yl)ethyl)-N6,N6-bis(2-methoxyethyl)-4,8-bis(4-methoxypiperidin-1-yl)pyrimido[5,4-d]pyrimidine-2,6-diamine] | 500 to 1000
20 | COCCN(CCOC)c1nc(N2CCCC(F)(F)C2)c2nc(N(CCOC)CCOC)nc(N3CCCC(F)(F)C3)c2n1 [Compound 33, 4,8-bis(3,3-difluoropiperidin-1-yl)-N2,N2,N6,N6-tetrakis(2-methoxyethyl)pyrimido[5,4-d]pyrimidine-2,6-diamine] | < 100
21 | COCCN(CCO)c1nc(N2CCC(OC)CC2)c2nc(N(CCOC)CCOC)nc(N3CCC(OC)CC3)c2n1 [Compound 34, 2-((6-(bis(2-methoxyethyl)amino)-4,8-bis(4-methoxypiperidin-1-yl)pyrimido[5,4-d]pyrimidin-2-yl)(2-methoxyethyl)amino)ethanol] | 500 to 1000
22 | COCCN(CCOC)c1nc(N2CCS(=O)(=O)CC2)c2nc(N(CCOC)CCOC)nc(N3CCS(=O)(=O)CC3)c2n1 [Compound 37, 4,4′-(2,6-bis(bis(2-methoxyethyl)amino)pyrimido[5,4-d]pyrimidine-4,8-diyl)bis(thiomorpholine 1,1-dioxide)] | 500 to 1000
23 | COCCN(CCOC)c1nc(N2CCN(c3nccs3)CC2)c2nc(N(CCO)CCO)nc(N3CCCCC3)c2n1 [Compound 38, 2,2′-((6-(bis(2-methoxyethyl)amino)-4-(piperidin-1-yl)-8-(4-(thiazol-2-yl)piperazin-1-yl)pyrimido[5,4-d]pyrimidin-2-yl)azanediyl)diethanol] | 100 to 500
24 | COCCN(CCOC)c1nc(N2CCCCC2)c2nc(N(CCO)CCO)nc(N3CCN(c4nccs4)CC3)c2n1 [Compound 39, 2,2′-((6-(bis(2-methoxyethyl)amino)-8-(piperidin-1-yl)-4-(4-(thiazol-2-yl)piperazin-1-yl)pyrimido[5,4-d]pyrimidin-2-yl)azanediyl)diethanol] | < 100
25 | COCCN(CCOC)c1nc(N2CCC(OC)CC2)c2nc(N(CCOC)CCOCCCN3CCOCC3)nc(N3CCC(OC)CC3)c2n1 [Compound 44, N2,N2,N6-tris(2-methoxyethyl)-4,8-bis(4-methoxypiperidin-1-yl)-N6-(2-(3-morpholinopropoxy)ethyl)pyrimido[5,4-d]pyrimidine-2,6-diamine] | 500 to 1000
26 | COCCN(CCOC)c1nc(N2CCC(OC)CC2)c2nc(N(CCOC)CCOCCN3CCOCC3)nc(N3CCC(OC)CC3)c2n1 [Compound 45, N2,N2,N6-tris(2-methoxyethyl)-4,8-bis(4-methoxypiperidin-1-yl)-N6-(2-(2-morpholinoethoxy)ethyl)pyrimido[5,4-d]pyrimidine-2,6-diamine] | 100 to 500
